# Assays:
# free hemoglobin (Hb) = target: T1, free hemoglobin (Hb) (Homo sapiens, UniProt P68871); experiment: P50 (oxygen equilibrium curve, Hemox Analyzer) on free hemoglobin; assay type: biochemical; details: blood matrix Hb, free hemoglobin 100 μM, pH 7.4, 37° C.; for P50: effector 2 mM (effector/Hb ratio 20), n=3; for P50 increase: versus P50 control, effector 2 mM
# T1 construct: the cells were hemolysed by addition of 2 volumes of cold distilled water; tissue EFS-Alsace; host or cells: red blood cell concentrate, hemolysed, stroma removed, passed over Sephadex G-25
# T1 sequence (P68871 2-147 limits assumed): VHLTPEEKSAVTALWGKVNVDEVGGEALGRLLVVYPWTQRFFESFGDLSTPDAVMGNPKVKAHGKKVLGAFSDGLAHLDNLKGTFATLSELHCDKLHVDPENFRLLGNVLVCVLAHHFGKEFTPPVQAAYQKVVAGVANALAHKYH
# T1 sequence (P69905 2-142 partner limits assumed): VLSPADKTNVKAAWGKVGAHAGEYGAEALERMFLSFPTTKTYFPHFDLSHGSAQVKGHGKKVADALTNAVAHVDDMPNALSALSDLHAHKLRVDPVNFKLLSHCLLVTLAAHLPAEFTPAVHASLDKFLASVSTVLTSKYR
# Description: (§1) Some of the compounds described herein were tested for P50 on free hemoglobin (Hb) as well as human whole blood (WB) as 120 mM solutions. The hemoglobin solution was prepared from red blood cells concentrate (EFS-Alsace) by washing three times with 1 volume of saline (1500×g, 10 min), the cells were hemolysed by addition of 2 volumes of cold distilled water. After centrifugation (7000×g, 30 min) for stroma removal, 5 ml of the clear hemoglobin solution were placed on a 2.5 cm×30 cm column of Sephadex G-25 equilibrated with 0.1 M sodium chloride+10^−5 M EDTA. The protein was eluted with the same solution at a rate of about 20 ml/h [Benesch, R.; Benesch, R. E. and Yu, C. I. Reciprocal binding of oxygen and diphosphoglycerate by human hemoglobin. Proc. Natl. Acad. Sci. USA (1968) 59, 526-532].
# The allosteric modulation of the effectors was measured by the change in p50, the partial pressure of oxygen for half-saturation. myo-Inositol hexaphosphate (myo-1HP) was purchased from Sigma. Oxygen equilibrium curves (OEC) were carried out with the Hemox Analyzer (TCS Scientific Co.) under the following conditions: pH 7.4, 135 mM NaCl, 5 mM KCl and 30 mM TES (N-[tris(hydroxymethyl)methyl]-2-aminoethanesulfonic acid) buffer at 37° C. The concentration of free hemoglobin was 100 μM (577 nm, ε=58.4 mM^−1 cm^−1 per tetramer) and the final concentration of the allosteric effector in the cuvette was 2 mM resulting in an effector/Hb ratio of 20.
# human whole blood (WB) = experiment: P50 (oxygen dissociation curve, Hemox Analyzer) on human whole blood; assay type: cell-based; details: blood matrix WB, 120 mM compound solution, 1:1 with whole blood; for P50: incubated two hours at 37° C., n=3; for P50 increase: versus P50 control, two hours at 37° C.
# Description: as §1
# Human blood was freshly withdrawn in heparinized tubes. The pH of the compound solutions was adjusted to approximately 7.0 and whole blood volumes at 1:1 ratios where incubated individually for two hours at 37° C. with the above compounds. Following, incubation, blood cells were washed 3 times with Bis-Tris-buffer. The measurement of oxygen dissociation curves was made in a Hemox-Analyzer instrument (TCS Scientific Corp.) A summary of P50 values for whole blood induced by the compounds is presented in Table 1.
Compound,P50 (free hemoglobin (Hb)),P50 increase (free hemoglobin (Hb)),P50 (human whole blood (WB)),P50 increase (human whole blood (WB))
"Hexasodium scyllo-inositol 1,2:3,4:5,6-trispyrophosphate [scyllo-ITPP (Compound 4, Scheme 5)]",23.02 ± 1.83 Torr,127%,34.10 ± 1.81 Torr,18%
"O=P(O)(O)O[C@H]1[C@H](OP(=O)(O)O)[C@@H](OP(=O)(O)O)[C@H](OP(=O)(O)O)[C@@H](OP(=O)(O)O)[C@H]1OP(=O)(O)O [myo-IHP, myo-Inositol hexaphosphate, reference compound]",48.37 ± 3.71 Torr,282%,–,–
"O[C@H]1[C@H](O)[C@@H](O)[C@H](O)[C@@H](O)[C@H]1O [myo-Inositol (Compound 7, Scheme 6)]",27.43 ± 1.07 Torr,158%,–,–
"O[C@H]1[C@H](O)[C@@H](O)[C@H](O)[C@@H](O)[C@H]1O [myo-Inositol (Compound 5, Scheme 6)]",27.25 ± 0.14 Torr,148%,35.53 ± 1.43 Torr,23%

# From patent publication US20130190524A1, “CYCLITOLS AND THEIR DERIVATIVES AND THEIR THERAPEUTIC APPLICATIONS” (UNIVERSITE DE STRASBOURG, priority 2006, published 2013)
